In patent publication US20020128434A1, “Alpha-(1,3-dicarbonylenol ether) methyl ketones as cysteine protease inhibitors” (priority 1993, published 2002):
Converted amounts (≈) assume the structure as drawn. Counter-ions that a name gives are not always drawn.

How the values were obtained:
[1] = tested on: calpain (Calcium Activated Neutral Protease); test: Calpain inhibition; type: biochemical; details: incubated 30 minutes at 37° C.; tested at 20 μM, 2 μM, 200 nM
Experimental: The percent inhibition of one inhibitor, Acetyl-Leucyl-Leucyl-Phenylalanyl-α-(4-oxy-dihydrofuran-2-one) methyl ketone, on calpain (Calcium Activated Neutral Protease) was determined as follows. A 50 mM Hepes, 10 mM calcium chloride, 5 mM cysteine, 1 mM β-mercaptoethanol, pH 7.5 buffer solution was prepared. The enzyme was activated for 1 minute in the buffer solution at room temperature. Inhibitor was prepared as stock solution in dimethylformamide. Inhibitor and enzyme/buffer were incubated for 30 minutes at 37° C. Final concentrations of inhibitor were 20 μM, 2 μM, and 200 nM. Enzyme activity was followed with 200 μM Boc-Valnyl-Leucyl-Lysine-AFC substrate by the release of free fluorescent detecting group over minutes at 37° C., as compared to the control.

physchem = details: 20 °C, water, thermodynamic from solid
[2] = molecular target: T1, Cathepsin B, purified from human liver (Homo sapiens, UniProt P07858); test: In vitro evaluation of inhibitors with purified cathepsin B; type: biochemical; details: purified cathepsin B; read-out: IC50 Cat B
T1 construct: Cathepsin B, purified from human liver; purchased Enzyme Systems Products (Dublin, Calif.); host or cells: human liver (tissue-purified)
Experimental: Enzyme: Cathepsin B, purified from human liver, is from Enzyme Systems Products (Dublin, Calif.). The activity is 50 mU per ml at 30° C., in 52 mM sodium phosphate, pH 6.2, 31 mM DTT, 2.1 mM EDTA, with 0.2 mM Z—Arg—Arg-7-amino-4-trifluoromethyl-coumarin as a substrate. Specific activity is 8330 mU per mg protein. (1 mU=1 nmol per min.)
Substrate Boc—Leu—Arg—Arg-7-amino-4-trifluoromethyl-coumarin-2HBr is from Enzyme Systems Products (Dublin, Calif.) and is known to be a specific substrate for cathepsin B. A 20 mM solution is made in DMF and stored at […].
Candidate inhibitors are dissolved in DMF and diluted to 20 mM and stored at […]. Dilutions are made in assay buffer.
The percent inhibition and the inhibitor concentration at which the enzyme is 50% inhibited (IC50) are determined as follows. Five μl of assay buffer (50 mM potassium phosphate pH 6.2, 2 mM EDTA, 5 mM DTT) on ice for 30 min. The inhibition is initiated by the addition of […] inhibitor each to the 480 μl aliquots. The 485 μl aliquot with enzyme is used as a control and thus receives no inhibitor. The enzyme/inhibitor mixtures are incubated 10 min. on ice and assayed for cathepsin B activity as follows:
Cathepsin B assay: To 490 μl of pre-incubated inhibitor/enzyme mixtures in assay buffer in 0.5 ml cuvette at 37° is added 10 μl of the substrate. Final inhibitor concentrations become 2000 nM, 200 nM, and 20 nM for the 200 μM, 20 μM and 2 μM stock concentrations, respectively. Activity is followed by release of free AFC over 5 min. The change in fluorescence is (fluorescence units at t=6)−(fluorescence units at t=1) with a Perkin-Elmer LS-5B spectrofluorometer (ex=400 nm, em=505 nm). The percent inhibition is determined by comparing the change in fluorescence units of the three sample concentrations of inhibited enzyme to the change in fluorescence units of the control enzyme. The percent inhibition is calculated as:
100−(fl. units of sample/fl. units of control×100).
The IC50 is ascertained by plotting percent inhibition vs. inhibitor concentration on the log scale. The IC50 is the concentration of the inhibitor (nM) at which the enzyme is inhibited by 50%.

malarial inhibition = test: Another test of malarial inhibition
Cathepsin H = molecular target: T2, Cathepsin H (Homo sapiens, UniProt P09668); test: Cathepsin H inhibition; type: biochemical
T2 sequence (P09668 98-335): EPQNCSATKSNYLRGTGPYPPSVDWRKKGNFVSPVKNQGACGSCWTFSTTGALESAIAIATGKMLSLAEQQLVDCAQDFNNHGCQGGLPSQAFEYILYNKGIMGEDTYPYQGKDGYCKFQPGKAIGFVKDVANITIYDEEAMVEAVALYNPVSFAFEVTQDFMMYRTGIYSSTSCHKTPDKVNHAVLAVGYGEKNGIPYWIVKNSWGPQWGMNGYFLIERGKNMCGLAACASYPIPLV

CC(=O)N[C@@H](CC(C)C)C(=O)N[C@@H](CC(C)C)C(=O)N[C@@H](Cc1ccccc1)C(=O)COC1=CC(=O)OC1 [Acetyl-Leucyl-Leucyl-Phenylalanyl-α-(4-oxy-dihydrofuran-2-one) methyl ketone]
concentration at which inhibitor showed activity against calpain [1]: less than 2 μM

O=C1C=C(OCC(=O)[C@H](CCc2ccccc2)NC(=O)[C@H](Cc2ccccc2)NC(=O)N2CCOCC2)CO1 [Compound 12, N-Morpholinecarbonyl-L-phenylalanyl-L-homophenylalanyl-α-(4-oxy-dihydrofuran-2-one) methyl ketone]
solubility (physchem): 277 µg/mL (≈ 517 µM) | IC50 [2]: 10 nM

CCC1OC(=O)C(OCC(=O)[C@H](CCc2ccccc2)NC(=O)[C@H](Cc2ccccc2)NC(=O)N2CCOCC2)=C1C (stereo partly drawn) [Compound A2, N-Morpholinecarbonyl-L-phenylalanyl-L-homophenylalanyl-α-(3-oxy-5-ethyl-4-methyl 2(5H)furanone) methyl ketone]
malarial inhibition (malarial inhibition): particularly effective

N[C@@H](CCc1ccccc1)C(=O)COC1=CC(=O)OC1 [L-Homophenyl-α-(4-oxy-dihydrofuran-2-one)methyl ketone hydrochloride]
IC50 (Cathepsin H): 251 nM

Cc1cc(OCC(=O)[C@@H](N)CCc2ccccc2)cc(=O)o1 [L-Homophenylalanyl-α-(4-oxy-(6-methyl-2-pyrone)methyl ketone]
IC50 (Cathepsin H): 118 nM
